# Assay results reported in patent US20240050402A1, “ANETHOLE TRITHIONE ADMINISTRATION REGIMEN FOR THE PREVENTION OR TREATMENT OF ISCHEMIA-REPERFUSION INJURIES” (priority 2020, published 2024).
# Read-outs that look alike come from different tables or passages of the source.
# Key:
# [1] = Clinical pharmacokinetics study in healthy volunteers, IV bolus + 1-step infusion; type: in vivo, human; conditions: for Cmax / concentration at 12 hours: both sexes, human, plasma; for Cmax: intravenous, read-out: AOL plasma concentration Cmax; for concentration at 12 hours: iv, read-out: AOL plasma concentration End of 12-hour infusion (IV)
# Experimental: The concentration of AOL in the subject's plasma can be measured by means and methods well known to the skilled artisan, such as liquid chromatography-mass spectrometry (LC/MS) or any other suitable means or method. For example, a blood sample from the subject can be centrifuged—preferably within 30 minutes after blood sampling—at about 1 500 g for 10 minutes at 2-8° C. to obtain plasma—the skilled artisan is familiar with method of obtaining plasma from a blood sample, and can readily adapt the centrifugal force, time, temperature and any other parameter according to their routine practice. Immediately after centrifugation, the plasma sample can be analyzed to assess the concentration of AOL by liquid chromatography-mass spectrometry (LC/MS).
# A single site, randomized, placebo-controlled, open-label and single blind, ascending dose, cross-over study primarily aiming at evaluating the pharmacokinetics, safety and tolerability of AOL administered intravenously in healthy volunteers versus a marketed formulation of AOL (Sulfarlem 525 ®) administered orally was carried out at QPS Netherlands B.V. (Groningen, The Netherlands). Twelve healthy male and female subjects aged between 18 and 65 years old were included in this study.
# During this clinical pharmacokinetics study, several dosage regimens have been tested to assess the safety of AOL and to better characterized its pharmacokinetics profile, when administered by IV route (Table 2).
# [2] = Two-step infusion after bolus, AOL plasma concentration in human; type: in vivo; conditions: 2-step infusion 6 then 3 μg/kg/h (3 h + 9 h), lower and higher bolus doses
# Experimental: In that respect, the management of the immediate post-initiation period has been evaluated using a 2-step infusion approach, i.e., starting with a higher dose (6 jig/kg/h) in the first 3 hours of infusion, and then stepping down to a lower dose (3 jig/kg/h) for the remaining time (in this example, 9 hours, for a total infusion period of 12 hours).
# The same 2-step infusion regimen was tested with 2 different bolus doses.
# [3] = test system: myocardial ischemia-reperfusion, left coronary artery occlusion; experiment: In vivo ischemia-reperfusion model in rat (30 min left coronary artery occlusion, 3 h reperfusion); conditions: for reduction of the size of the myocardial infarction / reduction of the size of the no-reflow zone: versus control; for Area of necrosis/Area at risk (%) / Area of no-reflow/Area at risk (%): mean±SEM
# Experimental: 64 female Sprague Dawley rats (— 6 months old) were anesthetized with intraperitoneal ketamine (90 mg/kg) and xylazine (10 mg/kg). Only female rats were used in this study as it was previously reported that gender had no effect on the extent of myocardial injury in the setting of experimental myocardial infarction in rats (Li & Kloner, 1995. J Thromb Thrombolysis. 2(3):221-225); and that lethal reperfusion-induced arrhythmias led to a higher mortality in male rats versus female rats (Dow et al., 2015. Springerplus. 4:96).
# The animals were intubated and mechanically ventilated with room air at respiratory rate of 60 cycles/minute and tidal volume of 1 mL per 100 g body weight (Harvard Apparatus Rodent Ventilator, Model 683, South Natick, Mass). A water circulating heating pad was used to keep the rat body temperature at around 37° C. Their neck surgical area was shaved and cleaned, and catheters were inserted into the jugular vein (for drug delivery) and carotid artery (for arterial waveform monitoring) via cut downs. Under clean conditions, the chest cavity was opened through an incision in the left 4th intercostal space to expose the heart. The pericardium was gently removed to expose the anterior surface of the left ventricle. A 4-0 silk suture was placed under the proximal portion of the left coronary artery as it runs through the interventricular groove just under the tip of the left atrial appendage. The end of the suture was threaded through a small plastic tube to make a snare for coronary artery occlusion. At the time of occlusion, the artery was pulled through the plastic tube and the tube was clamped. Coronary artery reperfusion occurred by releasing the clamp and watching the surface of the heart for reactive hyperemia. The left coronary artery was occluded for 30 minutes followed by 3 hours of reperfusion.
# Rats were randomized into one of the 3 groups: • preventive group (n=22): AOL infusion starting 5 minutes before coronary artery occlusion; • curative group (n=20): AOL infusion starting 5 minutes prior to reperfusion; • control group (n=22): vehicle infusion starting 5 minutes before coronary artery occlusion.
# The investigators were blinded to the animal randomization. Infusions in all groups were continuous throughout the end of the study (h+3 after reperfusion). In treated rats, the dose of AOL was 0.2 mg/kg/hour delivered in saline at a rate of infusion of 2 mL/kg/hour.
# By the end of the 3-hour reperfusion, a solution of thioflavin S was injected into the jugular vein during the last one minute of reperfusion to assess the distribution of the no-reflow phenomenon (also known as “zone of microvascular obstruction”). Thioflavin S is a dye that appears fluorescent in areas receiving perfusion, when heart slices are visualized under UV light; while the no-reflow area, that lacks perfusion, appears dark (non-fluorescent). At the end of the period of reperfusion after thioflavin S injection, the proximal coronary artery was briefly re-occluded and blue dye (Super imperse blue) was injected into the jugular vein.
# At the end of this step, the animal was euthanized under deep anesthesia with ketamine/xylazine by intravascular injection of KCl (149 mg/mL) at 0.5 mL/250 g body weight in order to stop the heart in a relative diastolic or relaxed state. The heart was excised and was gently washed in clear saline, and then transected into 4 transverse slices from apex to base.
# The heart slices were photographed under white light in order to delineate the ischemic risk zone (pink) versus the non-ischemic regions (blue) that received the blue dye. The heart slices were then photographed under UV light in order to delineate the areas of perfusion by thioflavin S (fluorescent areas) versus the no-reflow zones (non-fluorescent).
# Finally, hearts were incubated in 1% of triphenyl tetrazolium chloride (TTC), a chemical that stains viable cells brick red, while dead or necrotic cells appear white. […]
# [4] = test system: myocardial ischemic-reperfusion, LAD coronary artery occlusion; experiment: In vivo ischemia-reperfusion model in sheep (balloon catheter LAD occlusion); conditions: ST-segment elevation, troponin Ic, CPK, infarct size, ejection fraction; level when occluding balloon deflated
# Experimental: (§1) Here, we investigated the effect of AOL in an in vivo ischemic-reperfusion model in sheep, by administering AOL prior to reperfusion to assess the cardioprotective potential of AOL. Several parameters were evaluated: • the infarct size, determined at the end of the experiment (day 3), and assessed by two independent pathologists; • the plasmatic exposure, evaluated by dosing plasma samples collected at regular intervals after administration of AOL by mass spectrometry; • ECG parameters; and • heart contractility, assessed through the measurement of the ejection fraction.
# The efficacy of AOL was evaluated by comparing these parameters in vehicle- and AOL-treated groups using the sheep model.
# Sheep underwent a myocardial ischemic-reperfusion, while either receiving AOL or the vehicle as a control. The animals underwent a three-day follow-up period and were euthanized on day 3.
# Myocardial ischemic followed by reperfusion was induced by using the balloon catheter procedure, which consists in occluding the distal left anterior descending (LAD) coronary artery by inflating/deflating a balloon. This particular procedure allowed to have infarction sizes highly reproducible and to occlude only temporally the coronary artery.
# AOL or vehicle were administered as a bolus intravenous (IV) injection 10 minutes prior to reperfusion. […]
# [5] = Plasma exposure of AOL metabolite in sheep after bolus/infusion; type: in vivo; conditions: limit of quantification
# Experimental: as §1
# AOL or vehicle were administered as a bolus intravenous (IV) injection 10 minutes prior to reperfusion. This bolus injection was expected to ensure an effective AOL plasma exposure on reperfusion and was immediately followed by a continuous IV infusion starting at the beginning of the reperfusion, for a total duration of administration (bolus+infusion) of 130 minutes.
# This starkly contrasted with the metabolization profile that we had observed in sheep (Example 2), where AOX remained below the limit of quantification (0.5 ng/mL) after bolus/infusion, despite similar or even higher doses (FIGS. 9B & 9C).
# [6] = bolus 0.3 μg/kg, infusion 0.4 μg/kg/hr for 12 hours
# [7] = bolus 0.9 μg/kg, infusion 1.7 μg/kg/hr for 12 hours
# [8] = bolus 1.8 μg/kg, infusion 3 μg/kg/hr for 12 hours
# [9] = bolus 4 μg/kg, infusion 6 μg/kg/hr for 12 hours
# [10] = curative (shortly before reperfusion)
# [11] = curative group: AOL 0.2 mg/kg/hour infusion starting 5 minutes prior to reperfusion
# [12] = preventive (prior to coronary artery occlusion)
# [13] = preventive group: AOL 0.2 mg/kg/hour infusion starting 5 minutes before coronary artery occlusion
structure (smiles),measurement,setting,value
"COc1ccc(-c2cc(=S)ss2)cc1 [AOL, 5-(4-methoxyphenyl)dithiole-3-thione]","slope of linear regression, plasma concentration at Cmax (Y) versus bolus dose (X)","[1]; Y=slope×X, FIG. 8A",1.046
same,"slope of linear regression, plasma concentration at end of infusion (Y) versus infusion dose (X)","[1]; Y=slope×X, FIG. 8B",0.5723
same,time at which steady state was reached,[1]; all dosage regimens tested,around 3 hours
same,AOL plasma concentration Valley,[1]; [6],~0.08 ng/mL
same,AOL plasma concentration Valley,[1]; [7],~0.37 ng/mL
same,AOL plasma concentration Valley,[1]; [8],~0.72 ng/mL
same,AOL plasma concentration Valley,[1]; [9],~2.67 ng/mL
same,Cmax,[1]; [6],0.29 ng/mL
same,Cmax,[1]; [7],1.04 ng/mL
same,Cmax,[1]; [8],1.94 ng/mL
same,Cmax,[1]; [9],4.14 ng/mL
same,concentration at 12 hours,[1]; [6],~0.1 ng/mL
same,concentration at 12 hours,[1]; [7],~0.8 ng/mL
same,concentration at 12 hours,[1]; [8],~1.7 ng/mL
same,concentration at 12 hours,[1]; [9],~3.5 ng/mL
same,metabolization of AOL into AOX,"[1]; human subjects, FIG. 9A",rapidly metabolized into AOX
same,trough of AOL plasma concentration after the bolus,[2],abolished the trough
same,"effect on hemodynamics (heart rate, arterial blood pressure)","[3]; baseline, end of occlusion, end of 3 hours reperfusion",without effect on hemodynamics
same,reduction of the size of the myocardial infarction,[3]; [10],11%
same,reduction of the size of the no-reflow zone,[3]; [10],23%
same,Area of necrosis/Area at risk (%),[3]; [11],50.8 ± 3.9^ %
same,Area of no-reflow/Area at risk (%),[3]; [11],30.1 ± 2.3 %
same,reduction of the size of the myocardial infarction,[3]; [12],22%
same,reduction of the size of the no-reflow zone,[3]; [12],26%
same,Area of necrosis/Area at risk (%),[3]; [13],44.5 ± 2.9^& %
same,Area of no-reflow/Area at risk (%),[3]; [13],28.8 ± 2.4 %
same,AOL plasma level at reperfusion at which positive impact compared to vehicle was observed,[4],> 1 ng per mL of plasma
"Oc1ccc(-c2cc(=S)ss2)cc1 [AOX, desmethylanethole trithione]",appearance of AOX in plasma after start of AOL administration,"[1]; human subjects, FIG. 9A",quickly appeared in the plasma
same,AOX plasma concentration,[5],< 0.5 ng/mL
